In ChEMBL document CHEMBL4017541, “Membrane-Active Hydantoin Derivatives as Antibiotic Agents” (J Med Chem, 2017):
≈ marks a conversion by molar mass, not a printed value. Calls of active or inactive are those of the source. The calls are words filed in the database; no cut-off is given here.

Assays:
[1] = tested on: Pseudomonas aeruginosa; experiment: Antimicrobial activity against Pseudomonas aeruginosa ATCC 27853 after 16 hrs; format: functional; details: ATCC 27853, 16 h
[2] = tested on: Klebsiella pneumoniae; experiment: Antimicrobial activity against Klebsiella pneumoniae ATCC 13383 after 16 hrs; format: functional; details: ATCC 13383, 16 h
[3] = Selectivity index, ratio of HC50 for mouse RBC to MIC for methicillin resistance Staphylococcus aureus ATCC 33591
[4] = tested on: Enterococcus faecalis; experiment: Antimicrobial activity against vancomycin resistant Enterococcus faecalis ATCC 700802 after 16 hrs; format: functional; details: ATCC 700802, 16 h
[5] = tested on: Escherichia coli; experiment: Antimicrobial activity against Escherichia coli ATCC 25922 after 16 hrs; format: functional; details: ATCC 25922, 16 h
[6] = tested on: Staphylococcus aureus; experiment: Antimicrobial activity against methicillin resistant Staphylococcus aureus ATCC 33591 after 16 hrs; format: functional; details: ATCC 33591, 16 h
[7] = tested on: Staphylococcus epidermidis; experiment: Antimicrobial activity against methicillin resistant Staphylococcus epidermidis RP62A after 16 hrs; format: functional
[8] = Retention time of compound by HPLC analysis
[9] = tested on: Staphylococcus aureus; experiment: Antibacterial activity against methicillin resistant Staphylococcus aureus ATCC 33591 infected in Wistar rat assessed as reduction in lung inflammation at 10 mg/kg, iv treated 24 hrs post infection measured after 3 days by hematoxylin/ eosin staining based microscopic analysis; format: functional, organism-based
[10] = tested on: Staphylococcus aureus; experiment: Antibacterial activity against methicillin resistance Staphylococcus aureus ATCC 33591 infected in Wistar rat assessed as reduction in bacterial load in bronchoalveolar lavage of lungs at 10 mg/kg, iv treated 24 hrs post infection measured after 3 days relative to control; format: functional; design: scale not given: the % may be the effect or the level left
[11] = tested on: Staphylococcus aureus; experiment: Antibacterial activity against methicillin resistant Staphylococcus aureus ATCC 33591 infected in Wistar rat assessed as reduction in lung inflammation at 10 mg/kg, iv treated 24 hrs post infection measured after 5 days by hematoxylin/ eosin staining based microscopic analysis; format: functional, organism-based
[12] = tested on: Staphylococcus aureus; experiment: Antibacterial activity against methicillin resistance Staphylococcus aureus ATCC 33591 infected in Wistar rat assessed as reduction in bacterial load in bronchoalveolar lavage of lungs at 10 mg/kg, iv treated 24 hrs post infection measured after 5 days relative to control; format: functional; design: scale not given: the % may be the effect or the level left
[13] = tested on: HCT-116; experiment: Cytotoxicity against human HCT116 cells; format: cell-based
[14] = tested on: Staphylococcus aureus; experiment: Antibacterial activity against methicillin resistance Staphylococcus aureus ATCC 33591 after 14 serial passage at 0.5 times MIC after 16 hrs; format: functional
[15] = tested on: Escherichia coli; experiment: Bactericidal activity against Escherichia coli ATCC 25922 at 25 to 50 ug/ml after 30 mins by time kill analysis; format: functional
[16] = tested on: Staphylococcus aureus; experiment: Bactericidal activity against methicillin resistance Staphylococcus aureus ATCC 33591 at 2 ug/ml after 60 mins by time kill analysis; format: functional
[17] = tested on: Escherichia coli; experiment: Bactericidal activity against Escherichia coli ATCC 25922 at 4 ug/ml after 60 mins by time kill analysis; format: functional
[18] = tested on: Staphylococcus aureus; experiment: Bactericidal activity against methicillin resistance Staphylococcus aureus ATCC 33591 at 25 ug/ml after 10 mins by time kill analysis; format: functional
[19] = tested on: Staphylococcus aureus; experiment: Induction of membrane disruption in methicillin resistance Staphylococcus aureus ATCC 33591 at 5 ug/ml after 2 hrs by propidium iodide/4', 6'-diamidino-2-phenylindole dihydrochloride dye based fluorescence microscopy; format: functional
[20] = tested on: Escherichia coli; experiment: Induction of membrane disruption in Escherichia coli ATCC 25922 at 5 ug/ml after 2 hrs by propidium iodide/4', 6'-diamidino-2-phenylindole dihydrochloride dye based fluorescence microscopy; format: functional

Row | SMILES | MIC [1] [µg/mL] | MIC [2] [µg/mL] | Selectivity Index [3] | MIC [4] [µg/mL] | MIC [5] [µg/mL] | MIC [6] [µg/mL] | MIC [7] [µg/mL] | Retention time [8] [min] | Activity [9] | Activity [10] [%] | Activity [11] | Activity [12] [%] | IC50 [13] [µg/mL] | Activity [14] | Activity [15] | Activity [16] | Activity [17] | Activity [18] | Activity [19] | Activity [20]
1 | CCCCCCCCCCCC(=O)N[C@@H](CCCCN)CN1CC(=O)N(C2CCCCC2)C1=O | 12.5 (≈ 26.1 µM) | 6.25 (≈ 13.1 µM) | 16 | 12.5 (≈ 26.1 µM) | 6.25 (≈ 13.1 µM) | 6.25 (≈ 13.1 µM) | 6.25 (≈ 13.1 µM) |  |  |  |  |  |  |  |  |  |  |  |  | 
2 | CCCCCCCCCC(=O)N[C@@H](CCCCN)CN1CC(=O)N(c2ccc(OC)cc2)C1=O | > 50 | > 50 |  | > 50 | > 50 | > 50 | > 50 | < 26 |  |  |  |  |  |  |  |  |  |  |  | 
3 | CCCCCCCCCCCCCC(=O)N[C@@H](CCCCN)CN1CC(=O)N(CCCC)C1=O | > 50 | 12.5 (≈ 26 µM) |  | 6.25 (≈ 13 µM) | 6.25 (≈ 13 µM) | 6.25 (≈ 13 µM) | 6.25 (≈ 13 µM) |  |  |  |  |  |  |  |  |  |  |  |  | 
4 | O=C1CN(/N=C/c2ccc([N+](=O)[O-])o2)C(=O)N1 [NITROFURANTOIN] | > 50 | 25 (≈ 105 µM) |  | 12.5 (≈ 52.5 µM) | 6.25 (≈ 26.2 µM) | 12.5 (≈ 52.5 µM) | 6.25 (≈ 26.2 µM) |  |  |  |  |  |  |  |  |  |  |  |  | 
5 | CCCCCCCCCCCC(=O)N[C@@H](CCCCN)CN1CC(=O)N(CC)C1=O | > 50 | > 50 |  | > 50 | 12.5 (≈ 29.4 µM) | > 50 | > 50 | < 26 |  |  |  |  |  |  |  |  |  |  |  | 
6 | CCCCCCCCCCCC(=O)N[C@@H](Cc1ccccc1)CN1CC(=O)N(c2cccc(Cl)c2)C1=O | > 50 | > 50 |  | > 50 | > 50 | > 50 | > 50 | < 26 |  |  |  |  |  |  |  |  |  |  |  | 
7 | CCCCCCCCCCCC(=O)N[C@@H](CCCCN)CN1CC(=O)N(c2ccc(OC)cc2)C1=O | 12.5 (≈ 24.9 µM) | 12.5 (≈ 24.9 µM) | 8 | 25 (≈ 49.7 µM) | 12.5 (≈ 24.9 µM) | 25 (≈ 49.7 µM) | 25 (≈ 49.7 µM) | < 26 |  |  |  |  |  |  |  |  |  |  |  | 
8 | CCCCCCCCCC(=O)N[C@@H](CCCCN)CN1CC(=O)N(CC)C1=O | > 50 | > 50 |  | > 50 | > 50 | > 50 | > 50 | < 26 |  |  |  |  |  |  |  |  |  |  |  | 
9 | CCCCCCCCCC(=O)N[C@@H](CCCCN)CN1CC(=O)N(C2CCCCC2)C1=O | > 50 | 25 (≈ 55.5 µM) |  | > 50 | 12.5 (≈ 27.7 µM) | 25 (≈ 55.5 µM) | > 50 | < 26 |  |  |  |  |  |  |  |  |  |  |  | 
10 | CCCCCCCCCCCCCC(=O)N[C@@H](CCCCN)CN1CC(=O)N(C2CCCCC2)C1=O | > 50 | 6.25 (≈ 12.3 µM) |  | 6.25 (≈ 12.3 µM) | 12.5 (≈ 24.7 µM) | 3.12 (≈ 6.16 µM) | 6.25 (≈ 12.3 µM) |  |  |  |  |  |  |  |  |  |  |  |  | 
11 | CN[C@H](CC(C)C)C(=O)N[C@H]1C(=O)N[C@@H](CC(N)=O)C(=O)N[C@H]2C(=O)N[C@H]3C(=O)N[C@H](C(=O)N[C@H](C(=O)O)c4cc(O)cc(O)c4-c4cc3ccc4O)[C@H](O)c3ccc(c(Cl)c3)Oc3cc2cc(c3O[C@@H]2O[C@H](CO)[C@@H](O)[C@H](O)[C@H]2O[C@H]2C[C@](C)(N)[C@H](O)[C@H](C)O2)Oc2ccc(cc2Cl)[C@H]1O [VANCOMYCIN] |  |  |  |  |  |  |  |  | Active | 30 | Active | 45 |  |  |  |  |  |  |  | 
12 | CCCCCCCCCC(=O)N[C@@H](CCCCN)CN1CC(=O)N(C23CC4CC(CC(C4)C2)C3)C1=O | 12.5 (≈ 24.9 µM) | 6.25 (≈ 12.4 µM) | 20 | 12.5 (≈ 24.9 µM) | 6.25 (≈ 12.4 µM) | 6.25 (≈ 12.4 µM) | 6.25 (≈ 12.4 µM) |  |  |  |  |  |  |  |  |  |  |  |  | 
13 | CCCCCCCCCCCC(=O)N[C@@H](CCCCN)CN1CC(=O)N(CCCC)C1=O | 25 (≈ 55.2 µM) | 12.5 (≈ 27.6 µM) | 6.4 | 25 (≈ 55.2 µM) | 6.25 (≈ 13.8 µM) | 12.5 (≈ 27.6 µM) | 25 (≈ 55.2 µM) | < 26 |  |  |  |  |  |  |  |  |  |  |  | 
14 | CCCCCCCCCCCC(=O)N[C@@H](CCCCN)CN1CC(=O)N(c2cccc(Cl)c2)C1=O | 1 (≈ 1.97 µM) | 0.78 (≈ 1.54 µM) | 190 | 0.5 (≈ 0.986 µM) | 1 (≈ 1.97 µM) | 0.5 (≈ 0.986 µM) | 0.5 (≈ 0.986 µM) | 28.4 | Active | 70 | Active | 96 | 100 (≈ 197 µM) | Active | Active | Active | Active | Active | Active | Active
